Read-outs that look alike come from different tables or passages of the source.
Columns and labels:
A549 = test: MTT cell proliferation assay, A549; assay type: cell-based; settings: Homo sapiens, A549, adult tumor cell line, read-out: Cell killing activity IC50
Experimental: (§1) Cells were plated in 96-well tissue culture plates at a density of 1 × 10^3 cells/well, allowed to attach 24 h, and then left untreated or treated with growth medium containing different concentrations of the tested RCn compounds previously dissolved in PBS. After different time periods the cell vitality was determined by MTT assay according to the manufacture’s instruction (Promega). Results are reported as the micromolar concentration of RCn reducing cell survival to 50% (IC50).

WIDr = test: MTT cell proliferation assay, WIDr; assay type: cell-based; settings: Homo sapiens, adult tumor cell line, read-out: Cell killing activity IC50
Experimental: as §1

Micelle size by TEM = assay type: physicochemical; settings: RC16 micelles self-assembled in water
Experimental: TEM studies were carried out on SH-SY5Y cells and HFs incubated with 5 μM RC16 for 24 h. Cells were seeded on cover glasses for 24 h and then the medium was replaced with a fresh one containing 5 μM RC16 for 24 h. At the end of the treatment the samples were washed with PBS and fixed with 2.5% glutaraldehyde in 0.1 M phosphate buffer for 2 h at 4°C and subsequently post-fixed with 1% OsO4 in 0.1 M phosphate buffer for 1 h at room temperature. After several washes the samples were dehydrated in an acetone series (70, 90, 100%) and embedded in Epon resin (Fluka, Sigma-Aldrich). Thin sections were collected on nickel grids, stained with uranyl acetate and lead citrate, and observed under a TEM (Philips CM10; FEI). Images were recorded using a Megaview III digital camera (FEI). […] To this purpose an aqueous solution of RC16 (20 μM) was stained with 2% (w/v) phosphotungstic acid for 3 min on a copper grid and subsequently it was visualized under TEM.

Neuro 2A = test: In vivo efficacy, metastatic model of murine neuroblastoma; parameters: species or system mouse
Experimental: An efficacy study was performed on an immunocompetent model of neuroblastoma. In this experiment A/J mice were i.v. injected with Neuro 2A (0.2 × 10^6 cells in 100 μL of PBS). After 5 days, the mice were randomized (six animals per group) and treated once with RC16 injected through the tail vein at doses of 20 μg or 40 μg/mouse or vehicle (PBS). After treatment animals were monitored for survival and endpoint criteria.
(§2) Endpoint criteria included tumor volume > 2000 mm3, body weight loss ≥ 20%, unusual mouse behavior, lack of movement and poor posture. Tumor size was measured using digital calipers on alternate days and tumor volume was calculated using the following formula: a x b^2 π/6 where a is the longest diameter and b is the shortest diameter. Mice were also weighed and observed 3 times per week for signs of endpoint condition.

[1] = system: adult tumor cell lines (A549, MDA-MB-231, WiDr); test: MTT cell killing, adult tumor cell lines (summary); assay type: cell-based; settings: Homo sapiens, summary of Table II
Experimental: as §1

A673 [2] = test: Intracellular ROS assay; assay type: cell-based, human; settings: A673, 5 μM RC16, 15 h
Experimental: Intracellular ROS were measured by OxiSelect™ Intracellular ROS Assay Kit (Cell Biolabs) following the manufacturer’s instructions. Briefly, cells (1 × 10^5/mL) were washed twice in PBS and incubated with 5 μM 2’,7’-dichlorodihydrofluorescein diacetate (H2DCFDA) 1 h at 37°C. After PBS washes, the medium was changed with a new one containing 5 μM RC16 for 15 h and 24 h. At the end of the treatment samples were washed with PBS and a mixture of medium and cell lysis buffer (1:1) was added for 5 min at 37°C. The fluorescence was read by a fluorimetric plate reader (Spectra max M2, Molecular Device). Excitation wavelength was 480 nm and emission wavelength was 530 nm.

[3] = system: SH-SY5Y, A673 and 143.98.2 cells; test: Annexin V-FITC/7AAD flow cytometry (apoptosis); assay type: cell-based, human; settings: 5 μM RC16, 24 h, all cell lines
Experimental: SH-SY5Y, A673 and 143.98.2 cells were stained with Annexin V-FITC/7AAD according to the manufacturer’s instructions (Biosciences). Briefly, adherent cells were seeded in 6 multi wells at a concentration of 4.5 × 10^5 cells/well and after 24 h treated with 5 μM RC16 for15 h and 24 h. At the end of the treatment the cells were detached, washed twice with cold PBS and then suspended in annexin binding buffer containing 5 μl of Annexin V-FITC and 5 μl of 7AAD. The samples were gently vortexed and incubated 15 min at 25°C in the dark. Finally, 400 ul binding buffer were added to each tube and the samples were analyzed by BD LSR II (Biosciences). The analysis was performed by FlowJo software version 10.0.5.

Ramos = test: MTT cell proliferation assay, Ramos; assay type: cell-based; settings: Homo sapiens, Lymphoma, read-out: Cell killing activity IC50
Experimental: as §1

[4] = system: human keratinocytes, human fibroblasts and HUVEC; test: MTT cell killing, normal versus tumor cells (summary); assay type: cell-based
Experimental: as §1

143.98.2 = test: MTT cell proliferation assay, 143.98.2; assay type: cell-based; settings: Homo sapiens, 143.98.2, Osteosarcoma, read-out: Cell killing activity IC50
Experimental: as §1

[5] = system: human tumor xenografts (CHLA-20, SK-N-AS, A673, A549, S462TY); test: In vivo efficacy, human tumor xenograft models
Experimental: Female athymic nude mice were subcutaneously injected with 5 × 10^6 human cancer cells in 150 μL mix of PBS and matrigel (2:1). The mice were then randomized into groups of six animals for each tumor type. This number was chosen because we sought a large effect size and to minimize numbers of mice. When tumors reached a mean volume of 150 mm^3, the animals were treated with RC16 or vehicle alone (PBS), given slowly through the tail vein at the dose of 1 mg/kg, 3 times a week for 3 weeks or orally gavaged at the dose of 2 mg/kg/day for 3 weeks.
as §2

[6] = system: Human Gingival Fibroblasts; test: MTT cell proliferation assay, normal fibroblasts; assay type: cell-based; settings: Fibroblast, normal cells, read-out: Cell killing activity IC50
Experimental: as §1

Rh41 = test: MTT cell proliferation assay, Rh41; assay type: cell-based; settings: Homo sapiens, Rh41, Rhabdomyosarcoma, read-out: Cell killing activity IC50
Experimental: as §1

A673 [7] = test: MTT cell proliferation assay, A673; assay type: cell-based; settings: Homo sapiens, A673, Ewing's Sarcoma, read-out: Cell killing activity IC50
Experimental: as §1

HUVEC = test: MTT cell proliferation assay, HUVEC; assay type: cell-based; settings: Homo sapiens, normal cells, read-out: Cell killing activity IC50
Experimental: as §1

## CCCCCCCCCCCCCCC1CN2CCCN3CCCCCC132 (stereo not shown) [RC16, 2-tetradecyl-4,8-diazatricyclo[6.5.0.0^1,^4]tridecane]
A549; 24 h
  IC50: 6.62 µM
A549; 48 h
  IC50: 5.58 µM
WIDr; 24 h
  IC50: 7.3 µM
WIDr; 48 h
  IC50: 6.02 µM
Micelle size by TEM
  Micelle mean diameter: 20–30 nm
Neuro 2A; A/J mice, single i.v. dose 20 μg or 40 μg/mouse
  Mean survival time versus controls: significant increase in the mean survival time
Neuro 2A; end of experiment (90 days), 20 μg or 40 μg/mouse i.v.
  Treated mice healthy and alive, no macroscopic disease at necropsy: 3 of the 12
[1]
  IC50: 1 to 10 µM
A673 [2]
  Intracellular ROS levels relative to control: more than twice the control values
[3]
  Apoptosis (sum of LR and UR quadrants): approximately 100%
Ramos; 24 h
  IC50: 0.1 µM
Ramos; 48 h
  IC50: 0.04 µM
[4]
  IC50 for normal cells relative to tumor cells: more than tenfold higher
143.98.2; 24 h
  IC50: 0.5 µM
143.98.2; 48 h
  IC50: 0.32 µM
[5]; 1 mg/kg i.v. 3 times a week for 3 weeks or 2 mg/kg/day oral gavage for 3 weeks
  Antitumor activity (inhibition of tumor growth, RTV): strong antitumor activity
[5]; i.v. 1 mg/kg 3 times a week or gavage 2 mg/kg/day, 3 weeks
  Weight loss or signs of toxicity during treatment: No weight loss or signs of toxicity
[6]; 24 h
  IC50: 11.8 µM
[6]; 48 h
  IC50: 10.5 µM
Rh41; 24 h
  IC50: 0.25 µM
Rh41; 48 h
  IC50: 0.15 µM
A673 [7]; 24 h
  IC50: 0.8 µM
A673 [7]; 48 h
  IC50: 0.65 µM
HUVEC; 24 h
  IC50: 10.6 µM
HUVEC; 48 h
  IC50: 9.65 µM
